# Literature values as cited in US6048869A, “Tricyclic compounds” (Merck & Co., Inc., priority 1999, dated 2000).
# Tests used:
# [1] = test system: 5α-reductase 1; conditions: isozyme predominating in sebaceous glands of facial and skin tissue; Harris et al. 1992
# [2] = test system: 5α-reductase 2
structure (smiles),measurement,setting,value
"CC(C)(C)NC(=O)[C@H]1CC[C@H]2[C@@H]3CC[C@H]4NC(=O)C=C[C@]4(C)[C@H]3CC[C@]12C [Finasteride, 17,-(N-tert-butylcarbamoyl)-3-oxo-4-aza-5 α-androst-1-ene-3-one]",sensitivity of type 1 5α-reductase to finasteride,[1],relatively insensitive
same,inhibition of the human prostate enzyme,[2]; human prostate enzyme,potent inhibitor
same,inhibition of type 2 5α-reductase,[2]; isozyme predominating in the prostate,potently inhibited
